How the values were obtained:
[1] = target: T1, ATP-dependent translocase ABCB1 (Homo sapiens, UniProt P08183); assay: Negative allosteric modulator activity at human wildtype P-gp expressed in HEK293FT cells assessed as increase in intracellular doxorubicin accumulation using doxorubicin as substrate at 1 uM incubated for 150 mins by microplate reader assay (reference value: 47.9 +/- 3.5 %); assay type: cell-based; details: 2.5 h
[2] = target: ATP-dependent translocase ABCB1 (Homo sapiens, UniProt P08183, G1114V); assay: Negative allosteric modulator activity at human P-gp G1114V mutant expressed in HEK293FT cells assessed as fold change in intracellular doxorubicin accumulation using doxorubicin as substrate at 1 uM incubated for 150 mins by microplate reader assay relative to DMSO; assay type: cell-based; details: 2.5 h
[3] = target: T2, ATP-dependent translocase ABCB1 (Homo sapiens, UniProt P08183, Q1193C); assay: Activation of P-gp ATPase activity in human P-gp Q1193C mutant expressed in HEK293FT cell microsomes assessed as fold change of ATPase activity at 20 uM incubated for 1 hr in presence of ATP by Glo-luminescence based microplate reader assay relative to DMSO; set-up: species or system Microsome
T2 sequence (P08183 whole entry Q1193C): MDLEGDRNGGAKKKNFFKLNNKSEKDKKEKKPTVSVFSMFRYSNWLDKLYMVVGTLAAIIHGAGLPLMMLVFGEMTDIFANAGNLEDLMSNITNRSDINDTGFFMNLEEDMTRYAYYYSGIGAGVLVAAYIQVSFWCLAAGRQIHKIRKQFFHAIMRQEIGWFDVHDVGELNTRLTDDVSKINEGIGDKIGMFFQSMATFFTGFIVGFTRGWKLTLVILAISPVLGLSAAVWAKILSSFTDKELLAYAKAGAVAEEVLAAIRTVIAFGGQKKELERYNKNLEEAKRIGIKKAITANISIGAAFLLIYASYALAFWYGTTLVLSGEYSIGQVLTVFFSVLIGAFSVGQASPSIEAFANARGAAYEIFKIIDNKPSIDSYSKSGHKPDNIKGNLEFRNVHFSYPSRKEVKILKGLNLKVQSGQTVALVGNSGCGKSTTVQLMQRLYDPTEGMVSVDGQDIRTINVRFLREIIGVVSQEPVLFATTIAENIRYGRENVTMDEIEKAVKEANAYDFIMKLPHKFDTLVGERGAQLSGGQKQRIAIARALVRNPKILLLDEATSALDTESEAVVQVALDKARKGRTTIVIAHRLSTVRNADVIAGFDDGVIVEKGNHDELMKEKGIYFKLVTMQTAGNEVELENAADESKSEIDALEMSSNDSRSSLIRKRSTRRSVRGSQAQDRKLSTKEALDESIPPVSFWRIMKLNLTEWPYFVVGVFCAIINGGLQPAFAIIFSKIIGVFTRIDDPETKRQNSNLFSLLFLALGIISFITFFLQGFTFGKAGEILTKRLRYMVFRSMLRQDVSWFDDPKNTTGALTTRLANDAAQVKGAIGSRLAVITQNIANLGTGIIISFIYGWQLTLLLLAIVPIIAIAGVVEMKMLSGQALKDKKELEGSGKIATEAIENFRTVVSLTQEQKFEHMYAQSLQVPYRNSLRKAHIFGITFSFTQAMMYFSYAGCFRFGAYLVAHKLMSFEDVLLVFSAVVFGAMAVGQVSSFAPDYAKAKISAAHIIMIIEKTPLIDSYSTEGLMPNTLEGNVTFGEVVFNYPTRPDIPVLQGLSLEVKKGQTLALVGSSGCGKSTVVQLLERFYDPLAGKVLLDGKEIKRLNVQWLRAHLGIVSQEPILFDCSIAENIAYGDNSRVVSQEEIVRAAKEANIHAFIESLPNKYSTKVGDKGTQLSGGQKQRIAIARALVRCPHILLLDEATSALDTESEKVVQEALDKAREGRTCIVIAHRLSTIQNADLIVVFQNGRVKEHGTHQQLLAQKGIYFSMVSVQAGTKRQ

[4] = target: T3, ATP-dependent translocase ABCB1 (Homo sapiens, UniProt P08183, T1226Y); assay: Negative allosteric modulator activity at human P-gp T1226Y mutant expressed in HEK293FT cells assessed as fold change in intracellular doxorubicin accumulation using doxorubicin as substrate at 1 uM incubated for 150 mins by microplate reader assay relative to DMSO; assay type: cell-based; details: 2.5 h
T3 sequence (P08183 whole entry T1226Y): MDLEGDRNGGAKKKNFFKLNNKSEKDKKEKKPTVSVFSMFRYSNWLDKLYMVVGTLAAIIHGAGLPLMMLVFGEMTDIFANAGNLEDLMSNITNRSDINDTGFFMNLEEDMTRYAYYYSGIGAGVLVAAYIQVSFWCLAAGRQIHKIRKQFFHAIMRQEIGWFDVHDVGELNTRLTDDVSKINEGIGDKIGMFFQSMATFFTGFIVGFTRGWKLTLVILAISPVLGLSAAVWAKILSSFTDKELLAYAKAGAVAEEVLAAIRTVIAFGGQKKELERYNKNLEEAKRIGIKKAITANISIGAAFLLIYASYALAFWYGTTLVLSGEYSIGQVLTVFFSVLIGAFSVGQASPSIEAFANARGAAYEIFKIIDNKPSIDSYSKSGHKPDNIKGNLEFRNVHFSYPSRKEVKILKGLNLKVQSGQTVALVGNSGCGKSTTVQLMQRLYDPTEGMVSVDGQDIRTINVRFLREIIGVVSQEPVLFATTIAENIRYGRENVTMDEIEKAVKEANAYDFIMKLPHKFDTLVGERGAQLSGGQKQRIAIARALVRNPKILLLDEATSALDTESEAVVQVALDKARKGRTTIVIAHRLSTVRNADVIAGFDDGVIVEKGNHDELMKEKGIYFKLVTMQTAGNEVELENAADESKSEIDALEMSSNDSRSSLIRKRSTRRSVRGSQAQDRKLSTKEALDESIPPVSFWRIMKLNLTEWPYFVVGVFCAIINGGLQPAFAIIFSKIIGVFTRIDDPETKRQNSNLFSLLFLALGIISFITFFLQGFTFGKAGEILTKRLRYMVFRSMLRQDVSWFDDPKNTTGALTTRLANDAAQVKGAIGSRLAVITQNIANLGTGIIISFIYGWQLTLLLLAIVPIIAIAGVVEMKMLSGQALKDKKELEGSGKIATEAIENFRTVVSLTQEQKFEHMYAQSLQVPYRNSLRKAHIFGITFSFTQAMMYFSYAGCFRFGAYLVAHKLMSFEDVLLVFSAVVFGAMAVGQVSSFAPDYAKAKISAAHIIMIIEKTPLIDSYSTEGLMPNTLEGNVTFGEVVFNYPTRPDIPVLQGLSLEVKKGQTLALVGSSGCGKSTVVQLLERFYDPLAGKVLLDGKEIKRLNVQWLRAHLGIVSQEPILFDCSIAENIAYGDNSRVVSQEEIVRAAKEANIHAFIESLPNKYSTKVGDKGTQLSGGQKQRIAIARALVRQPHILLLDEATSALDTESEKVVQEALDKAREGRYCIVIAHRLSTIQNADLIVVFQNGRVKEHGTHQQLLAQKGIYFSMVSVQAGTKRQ

[5] = target: ATP-dependent translocase ABCB1 (Homo sapiens, UniProt P08183, I1115A); assay: Negative allosteric modulator activity at human P-gp I1115A mutant expressed in HEK293FT cells assessed as fold change in intracellular doxorubicin accumulation using doxorubicin as substrate at 1 uM incubated for 150 mins by microplate reader assay relative to DMSO; assay type: cell-based; details: 2.5 h
[6] = target: T3, ATP-dependent translocase ABCB1; assay: Negative allosteric modulator activity at human P-gp T1226Y mutant expressed in HEK293FT cells assessed as increase in intracellular doxorubicin accumulation using doxorubicin as substrate at 1 uM incubated for 150 mins by microplate reader assay (reference value: 67.4 +/- 2 %); assay type: cell-based; details: 2.5 h
[7] = target: ATP-dependent translocase ABCB1 (Homo sapiens, UniProt P08183, I1115F); assay: Negative allosteric modulator activity at human P-gp I1115F mutant expressed in HEK293FT cells assessed as increase in intracellular doxorubicin accumulation using doxorubicin as substrate at 1 uM incubated for 150 mins by microplate reader assay (reference value: 65.5 +/- 0.9 %); assay type: cell-based; details: 2.5 h
[8] = target: ATP-dependent translocase ABCB1 (Homo sapiens, UniProt P08183, Q1193F); assay: Negative allosteric modulator activity at human P-gp Q1193F mutant expressed in HEK293FT cells assessed as reversal of P-gp mediated PTX resistance by measuring sensitivity fold change incubated for 5 days by MTS assay; assay type: cell-based; details: 120 h, time 5 day
[9] = target: ATP-dependent translocase ABCB1 (Homo sapiens, UniProt P08183, C1227A); assay: Negative allosteric modulator activity at human P-gp C1227A mutant expressed in HEK293FT cells assessed as increase in intracellular doxorubicin accumulation using doxorubicin as substrate at 1 uM incubated for 150 mins by microplate reader assay (reference value: 33.3 +/- 1.3 %); assay type: cell-based; details: 2.5 h
[10] = target: ATP-dependent translocase ABCB1 (Homo sapiens, UniProt P08183, I1115E); assay: Negative allosteric modulator activity at human P-gp I1115E mutant expressed in HEK293FT cells assessed as increase in intracellular doxorubicin accumulation using doxorubicin as substrate at 1 uM incubated for 150 mins by microplate reader assay (reference value: 94.7 +/- 5.1 %); assay type: cell-based; details: 2.5 h
P-gp (ABCB1) wildtype = P-gp (ABCB1) wildtype (Homo sapiens, UniProt P08183); assay: Activation of P-gp ATPase activity in wildtype human P-gp expressed in HEK293FT cell microsomes assessed as fold change of ATPase activity at 20 uM incubated for 1 hr in presence of ATP by Glo-luminescence based microplate reader assay relative to DMSO; set-up: species or system Microsome; details: microsomes of HEK293FT cells expressing wildtype human P-gp, read-out: FC
[11] = target: T1, ATP-dependent translocase ABCB1; assay: Negative allosteric modulator activity at human wildtype P-gp expressed in HEK293FT cells assessed as reversal of P-gp mediated PTX resistance by measuring sensitivity fold change incubated for 5 days by MTS assay; assay type: cell-based; details: 120 h, time 5 day
[12] = target: ATP-dependent translocase ABCB1 (Homo sapiens, UniProt P08183, L1113A); assay: Negative allosteric modulator activity at human P-gp L1113A mutant expressed in HEK293FT cells assessed as reversal of P-gp mediated PTX resistance by measuring sensitivity fold change incubated for 5 days by MTS assay; assay type: cell-based; details: 120 h, time 5 day
[13] = target: ATP-dependent translocase ABCB1 (Homo sapiens, UniProt P08183, I1115K); assay: Negative allosteric modulator activity at human P-gp I1115K mutant expressed in HEK293FT cells assessed as increase in intracellular doxorubicin accumulation using doxorubicin as substrate at 1 uM incubated for 150 mins by microplate reader assay (reference value: 97.8 +/- 3.1 %); assay type: cell-based; details: 2.5 h
[14] = target: ATP-dependent translocase ABCB1 (Homo sapiens, UniProt P08183, G1114I); assay: Negative allosteric modulator activity at human P-gp G1114I mutant expressed in HEK293FT cells assessed as increase in intracellular doxorubicin accumulation using doxorubicin as substrate at 1 uM incubated for 150 mins by microplate reader assay (reference value: 94.7 +/- 2.7 %); assay type: cell-based; details: 2.5 h
[15] = target: ATP-dependent translocase ABCB1 (Homo sapiens, UniProt P08183, Q1193A); assay: Activation of P-gp ATPase activity in human P-gp Q1193A mutant expressed in HEK293FT cell microsomes at 20 uM incubated for 1 hr in presence of ATP by Glo-luminescence based microplate reader assay (reference value: 0.38 +/- 0.04 pmol/min/microg); set-up: species or system Microsome
[16] = target: ATP-dependent translocase ABCB1 (Homo sapiens, UniProt P08183, Q1193K); assay: Negative allosteric modulator activity at human P-gp Q1193K mutant expressed in HEK293FT cells assessed as fold change in intracellular doxorubicin accumulation using doxorubicin as substrate at 1 uM incubated for 150 mins by microplate reader assay relative to DMSO; assay type: cell-based; details: 2.5 h
[17] = target: ATP-dependent translocase ABCB1 (Homo sapiens, UniProt P08183, Q1193E); assay: Negative allosteric modulator activity at human P-gp Q1193E mutant expressed in HEK293FT cells assessed as reversal of P-gp mediated PTX resistance by measuring sensitivity fold change incubated for 5 days by MTS assay; assay type: cell-based; details: 120 h, time 5 day
[18] = target: ATP-dependent translocase ABCB1 (Homo sapiens, UniProt P08183, I1115Y); assay: Negative allosteric modulator activity at human P-gp I1115Y mutant expressed in HEK293FT cells assessed as increase in intracellular doxorubicin accumulation using doxorubicin as substrate at 1 uM incubated for 150 mins by microplate reader assay (reference value: 97.3 +/- 3.7 %); assay type: cell-based; details: 2.5 h
Sequence of ATP-dependent translocase ABCB1 (Homo sapiens, UniProt P08183, I1115Y) (P08183 whole entry I1115Y): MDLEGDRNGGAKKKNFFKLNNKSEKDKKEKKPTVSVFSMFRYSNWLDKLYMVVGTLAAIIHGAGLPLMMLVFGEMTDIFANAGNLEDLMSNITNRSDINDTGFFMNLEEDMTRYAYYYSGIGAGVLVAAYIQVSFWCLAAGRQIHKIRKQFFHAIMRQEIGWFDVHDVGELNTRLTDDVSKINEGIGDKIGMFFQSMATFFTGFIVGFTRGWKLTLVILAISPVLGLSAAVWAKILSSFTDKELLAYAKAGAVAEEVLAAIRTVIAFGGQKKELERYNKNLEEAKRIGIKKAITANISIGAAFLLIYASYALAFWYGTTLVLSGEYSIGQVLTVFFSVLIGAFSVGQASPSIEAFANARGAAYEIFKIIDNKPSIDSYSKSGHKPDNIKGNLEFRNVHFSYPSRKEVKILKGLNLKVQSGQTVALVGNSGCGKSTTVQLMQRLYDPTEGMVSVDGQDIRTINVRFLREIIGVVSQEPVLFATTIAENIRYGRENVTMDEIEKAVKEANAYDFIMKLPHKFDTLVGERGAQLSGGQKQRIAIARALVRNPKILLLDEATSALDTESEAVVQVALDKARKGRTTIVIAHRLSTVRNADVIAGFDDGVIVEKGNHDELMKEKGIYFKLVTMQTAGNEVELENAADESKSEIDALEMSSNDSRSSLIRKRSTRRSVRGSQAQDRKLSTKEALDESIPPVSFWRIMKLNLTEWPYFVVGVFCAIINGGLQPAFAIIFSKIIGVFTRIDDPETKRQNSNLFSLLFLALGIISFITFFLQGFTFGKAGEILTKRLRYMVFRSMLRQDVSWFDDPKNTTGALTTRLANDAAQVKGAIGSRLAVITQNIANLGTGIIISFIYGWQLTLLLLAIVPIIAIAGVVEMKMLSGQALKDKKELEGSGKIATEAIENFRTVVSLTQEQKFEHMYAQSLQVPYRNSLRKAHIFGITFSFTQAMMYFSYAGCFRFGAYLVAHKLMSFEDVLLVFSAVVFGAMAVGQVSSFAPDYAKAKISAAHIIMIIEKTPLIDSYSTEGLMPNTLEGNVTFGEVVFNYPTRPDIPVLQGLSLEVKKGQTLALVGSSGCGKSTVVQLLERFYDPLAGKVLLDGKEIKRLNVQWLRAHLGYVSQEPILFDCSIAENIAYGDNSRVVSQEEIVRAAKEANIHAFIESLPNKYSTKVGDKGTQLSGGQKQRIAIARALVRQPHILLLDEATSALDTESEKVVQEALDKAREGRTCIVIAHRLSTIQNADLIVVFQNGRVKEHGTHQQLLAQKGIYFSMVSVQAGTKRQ

[19] = target: T2, ATP-dependent translocase ABCB1; assay: Activation of P-gp ATPase activity in human P-gp Q1193C mutant expressed in HEK293FT cell microsomes at 20 uM incubated for 1 hr in presence of ATP by Glo-luminescence based microplate reader assay (reference value: 0.45 +/- 0.04 pmol/min/microg); set-up: species or system Microsome

T1 sequence (P08183 whole entry): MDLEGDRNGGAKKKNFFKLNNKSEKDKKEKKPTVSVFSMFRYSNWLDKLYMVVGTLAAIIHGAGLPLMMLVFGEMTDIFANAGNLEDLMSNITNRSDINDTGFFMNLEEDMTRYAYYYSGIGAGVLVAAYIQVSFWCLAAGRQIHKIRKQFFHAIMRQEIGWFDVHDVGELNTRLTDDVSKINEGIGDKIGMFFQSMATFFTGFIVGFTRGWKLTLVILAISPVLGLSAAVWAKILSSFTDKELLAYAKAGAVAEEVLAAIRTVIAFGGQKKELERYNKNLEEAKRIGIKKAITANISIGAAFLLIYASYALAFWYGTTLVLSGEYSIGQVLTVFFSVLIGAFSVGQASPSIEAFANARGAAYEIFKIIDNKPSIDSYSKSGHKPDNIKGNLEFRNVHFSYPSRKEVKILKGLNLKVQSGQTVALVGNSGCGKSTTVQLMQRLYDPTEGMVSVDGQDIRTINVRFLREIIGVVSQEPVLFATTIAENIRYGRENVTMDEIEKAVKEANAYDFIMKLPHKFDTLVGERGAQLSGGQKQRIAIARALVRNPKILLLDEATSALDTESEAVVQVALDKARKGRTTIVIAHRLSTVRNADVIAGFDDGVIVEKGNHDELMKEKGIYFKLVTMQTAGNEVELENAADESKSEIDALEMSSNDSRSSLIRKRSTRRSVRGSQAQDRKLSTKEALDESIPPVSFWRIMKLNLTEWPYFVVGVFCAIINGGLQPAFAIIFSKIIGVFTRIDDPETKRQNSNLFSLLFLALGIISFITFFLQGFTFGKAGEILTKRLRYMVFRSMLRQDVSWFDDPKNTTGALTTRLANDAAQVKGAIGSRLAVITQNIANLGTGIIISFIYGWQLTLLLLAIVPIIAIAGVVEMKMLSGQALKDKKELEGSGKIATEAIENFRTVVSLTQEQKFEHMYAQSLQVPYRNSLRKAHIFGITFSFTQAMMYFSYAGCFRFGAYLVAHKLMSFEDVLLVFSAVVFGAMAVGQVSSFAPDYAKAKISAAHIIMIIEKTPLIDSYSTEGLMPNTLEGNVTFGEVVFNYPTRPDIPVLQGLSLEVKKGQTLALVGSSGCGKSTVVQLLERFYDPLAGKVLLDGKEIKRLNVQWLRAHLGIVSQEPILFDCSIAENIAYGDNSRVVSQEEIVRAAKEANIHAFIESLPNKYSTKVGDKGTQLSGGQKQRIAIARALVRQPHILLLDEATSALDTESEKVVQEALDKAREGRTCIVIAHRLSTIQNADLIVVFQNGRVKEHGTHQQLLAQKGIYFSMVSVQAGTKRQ

Activity [1]: 90.1%
fold change (FC) [2]: 1
fold change (FC) [3]: 1.3
fold change (FC) [4]: 1.5
fold change (FC) [5]: 1
Activity [6]: 104%
Activity [7]: 83.8%
fold change (FC) [8]: 5.6
Activity [9]: 43.8%
Activity [10]: 97.8%
fold induction at 1 h, 20 µM (P-gp (ABCB1) wildtype): 1.6
fold change (FC) [11]: 73
fold change (FC) [12]: 140.5
Activity [13]: 100.1%
Activity [14]: 98.9%
Activity [15]: 0.42 pmol/min/µg
fold change (FC) [16]: 1.3
fold change (FC) [17]: 4.3
Activity [18]: 96.4%
Activity [19]: 0.57 pmol/min/µg
Compound: O=c1cc(-c2ccc(OCCOCCNCc3ccccc3)cc2)oc2ccccc12

From ChEMBL document CHEMBL5338754, “Identification of Binding Sites in the Nucleotide-Binding Domain of P-Glycoprotein for a Potent and Nontoxic Modulator, the Amine-Containing Monomeric Flavonoid FM04” (J Med Chem, 2023)
